Experimental data from ChEMBL document CHEMBL5034031, “Discovery of Next-Generation Tropomyosin Receptor Kinase Inhibitors for Combating Multiple Resistance Associated with Protein Mutation” (J Med Chem, 2021).
pIC50: −log10 of the molar value.

Key:
BaF3 [1] = assay: Antiproliferative activity against mouse BaF3 cells transfected with ETV6-wild type TRKA assessed as cell viability incubated for 72 hrs by CCK8 assay; format: functional, cell-based; settings: BaF3, 72 h
BaF3 [2] = assay: Antiproliferative activity against mouse BAF3 cells transfected with LMNA-TRKA G595R mutant assessed as cell viability incubated for 72 hrs by CCK8 assay; format: functional, cell-based; settings: BaF3, 72 h
BaF3 [3] = format: functional, cell-based; settings: Mus musculus, BaF3, 72 h
BaF3 [4] = assay: Antitumor activity against mouse BAF3 cells harboring TMP3 fused wild type TRKA xenografted in BALB/c nude mouse assessed as tumor growth inhibition at 5 mg/kg, po administered twice daily for 12 to […] consecutive days; format: functional; settings: time 12-14 day, read-out: TGI
BaF3 [5] = assay: Antitumor activity against mouse BAF3 cells harboring TMP3 fused TRKA G595R mutant xenografted in BALB/c nude mouse assessed as tumor growth inhibition at 30 mg/kg, po administered twice daily for 12 to […] consecutive days; format: functional; settings: time 12-14 day, read-out: TGI
[6] = Toxicity in BALB/c mouse xenografted with mouse BAF3 cells harboring ETV6 fused TRKC G623R mutant assessed as body weight loss at 15 to 30 mg/kg, po administered twice daily for 12 to 14 consecutive days; format: organism-based; settings: in vivo, dose lower 15 mg/kg, time lower 12 day, dose upper 30 mg/kg, time upper 14 day
[7] = Clearance in Sprague-Dawley rat at 5 mg/kg, ig measured upto 24 hrs by LC-MS/MS analysis; format: ADME, organism-based; settings: in vivo, po
[8] = AUC(0 to infinity) in Beagle dog at 5 mg/kg, ig measured upto 24 hrs by LC-MS/MS analysis; format: ADME, organism-based, Canis lupus familiaris; parameters: route […], dose 5 mg/kg, time <=24; settings: in vivo, po
[9] = Half life in Beagle dog at 1 mg/kg, iv measured upto 24 hrs by LC-MS/MS analysis; format: ADME, organism-based, Canis lupus familiaris; settings: in vivo
[10] = Half life in Beagle dog at 5 mg/kg, ig measured upto 24 hrs by LC-MS/MS analysis; format: ADME, organism-based, Canis lupus familiaris; settings: in vivo, po
[11] = Volume of distribution in Beagle dog at 5 mg/kg, ig measured upto 24 hrs by LC-MS/MS analysis; format: ADME, organism-based, Canis lupus familiaris; settings: in vivo, po
[12] = Oral bioavailability in Beagle dog at 5 mg/kg measured upto 24 hrs by LC-MS/MS analysis; format: ADME, organism-based, Canis lupus familiaris; settings: in vivo
[13] = Plasma protein binding in rat; format: ADME, cell-free; settings: read-out: PPB (converted)
[14] = molecular target: Voltage-gated inwardly rectifying potassium channel KCNH2 (Homo sapiens, UniProt Q12809); assay: Inhibition of hERG
[15] = Metabolic stability in human liver microsomes assessed as half life at 1 uM measured upto 90 mins in presence of NADPH regenerating system by LC-MS/MS analysis; format: ADME, Microsome
[16] = molecular target: Tyrosine-protein kinase ABL2 (Homo sapiens) (UniProt P42684); assay: Inhibition of ABL2 (unknown origin) at 1 uM relative to control
[17] = molecular target: Tyrosine-protein kinase receptor UFO (Homo sapiens) (UniProt P30530); assay: Inhibition of AXL (unknown origin) at 1 uM relative to control
Tyrosine-protein kinase receptor UFO (Homo sapiens), sequence (P30530 whole entry): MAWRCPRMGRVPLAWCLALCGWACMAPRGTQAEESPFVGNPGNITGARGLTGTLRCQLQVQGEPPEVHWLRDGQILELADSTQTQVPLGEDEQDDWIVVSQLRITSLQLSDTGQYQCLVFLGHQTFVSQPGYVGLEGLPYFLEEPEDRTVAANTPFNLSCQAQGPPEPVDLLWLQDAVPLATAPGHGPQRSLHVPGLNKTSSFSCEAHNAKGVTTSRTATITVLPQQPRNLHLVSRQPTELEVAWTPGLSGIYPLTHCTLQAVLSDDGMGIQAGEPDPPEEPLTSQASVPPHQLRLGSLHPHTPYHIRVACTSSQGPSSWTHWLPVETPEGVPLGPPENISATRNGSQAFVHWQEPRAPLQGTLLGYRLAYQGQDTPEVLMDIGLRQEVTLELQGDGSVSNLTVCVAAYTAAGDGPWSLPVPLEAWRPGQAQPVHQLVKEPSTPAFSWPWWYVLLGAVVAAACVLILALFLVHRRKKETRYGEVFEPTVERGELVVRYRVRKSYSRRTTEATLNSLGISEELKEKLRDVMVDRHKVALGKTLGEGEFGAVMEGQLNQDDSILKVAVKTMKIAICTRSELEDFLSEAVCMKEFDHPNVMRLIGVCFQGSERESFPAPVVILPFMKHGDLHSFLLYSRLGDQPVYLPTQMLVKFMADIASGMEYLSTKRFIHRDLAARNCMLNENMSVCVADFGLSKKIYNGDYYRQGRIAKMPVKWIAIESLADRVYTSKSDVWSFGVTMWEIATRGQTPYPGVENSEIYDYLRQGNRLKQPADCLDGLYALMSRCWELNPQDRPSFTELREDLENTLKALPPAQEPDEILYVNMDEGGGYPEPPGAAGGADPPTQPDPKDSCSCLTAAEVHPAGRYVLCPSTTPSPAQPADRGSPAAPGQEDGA

[18] = molecular target: Dual specificity protein kinase CLK2 (Homo sapiens) (UniProt P49760); assay: Inhibition of CLK2 (unknown origin) at 1 uM relative to control
Dual specificity protein kinase CLK2 (Homo sapiens), sequence (P49760 whole entry, looked up): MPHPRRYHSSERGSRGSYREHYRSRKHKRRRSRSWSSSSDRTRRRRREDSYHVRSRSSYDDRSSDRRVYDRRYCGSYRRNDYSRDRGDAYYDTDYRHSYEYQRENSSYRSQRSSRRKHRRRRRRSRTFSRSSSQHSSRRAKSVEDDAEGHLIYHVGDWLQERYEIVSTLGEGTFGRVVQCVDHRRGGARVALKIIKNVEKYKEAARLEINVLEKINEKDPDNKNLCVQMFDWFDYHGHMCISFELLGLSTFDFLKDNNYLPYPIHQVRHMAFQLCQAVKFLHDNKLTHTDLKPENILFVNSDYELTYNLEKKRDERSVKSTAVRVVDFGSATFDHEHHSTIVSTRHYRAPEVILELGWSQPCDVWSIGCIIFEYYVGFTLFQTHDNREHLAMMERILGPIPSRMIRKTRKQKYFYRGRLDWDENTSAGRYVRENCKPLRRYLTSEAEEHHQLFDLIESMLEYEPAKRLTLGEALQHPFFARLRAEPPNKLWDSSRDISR

[19] = molecular target: Mitogen-activated protein kinase 3 (Homo sapiens) (UniProt P27361); assay: Inhibition of ERK1 (unknown origin) at 1 uM relative to control
[20] = molecular target: Homeodomain-interacting protein kinase 1 (Homo sapiens) (UniProt Q86Z02); assay: Inhibition of HIPK1 (unknown origin) at 1 uM relative to control
[21] = molecular target: Insulin-like growth factor 1 receptor (Homo sapiens) (UniProt P08069); assay: Inhibition of IGF1R (unknown origin) at 1 uM relative to control
[22] = molecular target: Tyrosine-protein kinase JAK1 (Homo sapiens) (UniProt P23458); assay: Inhibition of JAK1 (unknown origin) at 1 uM relative to control
Tyrosine-protein kinase JAK1 (Homo sapiens), sequence (P23458 whole entry): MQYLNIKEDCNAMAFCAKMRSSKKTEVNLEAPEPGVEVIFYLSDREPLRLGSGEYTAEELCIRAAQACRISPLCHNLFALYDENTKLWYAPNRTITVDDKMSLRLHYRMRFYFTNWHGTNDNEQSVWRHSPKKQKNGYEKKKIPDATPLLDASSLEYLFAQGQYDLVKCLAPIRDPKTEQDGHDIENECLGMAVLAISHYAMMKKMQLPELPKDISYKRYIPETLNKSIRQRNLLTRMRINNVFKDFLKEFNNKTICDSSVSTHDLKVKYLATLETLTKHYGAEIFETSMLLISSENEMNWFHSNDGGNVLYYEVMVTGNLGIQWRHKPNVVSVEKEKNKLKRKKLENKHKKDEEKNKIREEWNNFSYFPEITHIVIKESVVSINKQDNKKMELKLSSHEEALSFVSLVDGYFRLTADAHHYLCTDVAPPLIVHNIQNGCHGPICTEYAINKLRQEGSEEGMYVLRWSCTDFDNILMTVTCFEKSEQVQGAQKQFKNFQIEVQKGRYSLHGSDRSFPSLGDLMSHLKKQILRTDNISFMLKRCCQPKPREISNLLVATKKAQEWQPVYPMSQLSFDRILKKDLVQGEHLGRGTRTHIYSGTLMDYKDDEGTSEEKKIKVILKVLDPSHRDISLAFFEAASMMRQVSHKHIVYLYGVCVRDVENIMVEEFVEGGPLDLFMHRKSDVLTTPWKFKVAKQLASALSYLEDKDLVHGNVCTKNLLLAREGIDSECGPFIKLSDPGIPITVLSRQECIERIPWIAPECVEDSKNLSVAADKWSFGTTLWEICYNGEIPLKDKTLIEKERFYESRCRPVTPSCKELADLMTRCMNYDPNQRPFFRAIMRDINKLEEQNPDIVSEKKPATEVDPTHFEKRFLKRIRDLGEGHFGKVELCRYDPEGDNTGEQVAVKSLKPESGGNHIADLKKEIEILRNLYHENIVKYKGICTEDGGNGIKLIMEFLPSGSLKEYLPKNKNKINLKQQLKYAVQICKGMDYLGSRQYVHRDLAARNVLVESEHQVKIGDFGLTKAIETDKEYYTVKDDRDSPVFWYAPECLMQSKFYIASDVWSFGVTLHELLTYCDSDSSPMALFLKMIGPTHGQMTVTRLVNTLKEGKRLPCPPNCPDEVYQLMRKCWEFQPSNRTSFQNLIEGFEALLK

[23] = molecular target: Mast/stem cell growth factor receptor Kit (Homo sapiens) (UniProt P10721); assay: Inhibition of KIT (unknown origin) at 1 uM relative to control
[24] = molecular target: Maternal embryonic leucine zipper kinase (Homo sapiens) (UniProt Q14680); assay: Inhibition of MELK (unknown origin) at 1 uM relative to control
[25] = molecular target: Serine/threonine-protein kinase mTOR (Homo sapiens) (UniProt P42345); assay: Inhibition of mTOR (unknown origin) at 1 uM relative to control
[26] = molecular target: Platelet-derived growth factor receptor alpha (Homo sapiens) (UniProt P16234); assay: Inhibition of PDGFRalpha (unknown origin) at 1 uM relative to control
Platelet-derived growth factor receptor alpha (Homo sapiens), sequence (P16234 whole entry): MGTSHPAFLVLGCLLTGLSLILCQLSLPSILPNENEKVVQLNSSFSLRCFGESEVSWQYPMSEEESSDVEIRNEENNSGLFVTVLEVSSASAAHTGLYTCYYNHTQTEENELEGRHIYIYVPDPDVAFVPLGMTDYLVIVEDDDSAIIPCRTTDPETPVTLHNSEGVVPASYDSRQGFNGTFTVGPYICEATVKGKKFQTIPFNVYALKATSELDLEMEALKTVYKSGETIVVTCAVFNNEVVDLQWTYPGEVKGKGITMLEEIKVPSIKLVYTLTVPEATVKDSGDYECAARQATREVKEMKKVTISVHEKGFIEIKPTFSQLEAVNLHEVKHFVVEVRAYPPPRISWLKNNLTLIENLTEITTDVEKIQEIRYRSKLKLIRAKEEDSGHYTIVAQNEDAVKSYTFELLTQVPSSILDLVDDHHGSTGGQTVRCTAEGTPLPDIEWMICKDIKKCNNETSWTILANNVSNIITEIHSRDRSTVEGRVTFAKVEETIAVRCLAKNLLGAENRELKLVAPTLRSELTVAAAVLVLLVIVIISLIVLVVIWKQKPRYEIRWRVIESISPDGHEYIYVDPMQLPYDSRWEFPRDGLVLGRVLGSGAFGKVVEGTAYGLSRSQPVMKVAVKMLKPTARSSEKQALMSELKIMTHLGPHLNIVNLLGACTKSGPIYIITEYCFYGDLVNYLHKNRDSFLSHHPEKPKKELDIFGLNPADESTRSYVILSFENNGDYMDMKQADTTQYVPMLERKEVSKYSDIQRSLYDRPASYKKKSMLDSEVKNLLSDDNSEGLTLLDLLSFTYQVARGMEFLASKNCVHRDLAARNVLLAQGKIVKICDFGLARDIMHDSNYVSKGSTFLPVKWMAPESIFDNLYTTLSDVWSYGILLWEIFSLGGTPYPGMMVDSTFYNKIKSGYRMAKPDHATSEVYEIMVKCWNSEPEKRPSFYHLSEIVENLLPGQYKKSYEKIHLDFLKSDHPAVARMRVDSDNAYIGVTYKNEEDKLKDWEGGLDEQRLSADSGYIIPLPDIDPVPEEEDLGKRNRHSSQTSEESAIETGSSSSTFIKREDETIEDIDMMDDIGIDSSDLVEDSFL

[27] = molecular target: [Pyruvate dehydrogenase (acetyl-transferring)] kinase isozyme 1, mitochondrial (Homo sapiens) (UniProt Q15118); assay: Inhibition of PDK1 (unknown origin) at 1 uM relative to control
[28] = molecular target: Serine/threonine-protein kinase PLK1 (Homo sapiens) (UniProt P53350); assay: Inhibition of PLK1 (unknown origin) at 1 uM relative to control
Serine/threonine-protein kinase PLK1 (Homo sapiens), sequence (P53350 whole entry): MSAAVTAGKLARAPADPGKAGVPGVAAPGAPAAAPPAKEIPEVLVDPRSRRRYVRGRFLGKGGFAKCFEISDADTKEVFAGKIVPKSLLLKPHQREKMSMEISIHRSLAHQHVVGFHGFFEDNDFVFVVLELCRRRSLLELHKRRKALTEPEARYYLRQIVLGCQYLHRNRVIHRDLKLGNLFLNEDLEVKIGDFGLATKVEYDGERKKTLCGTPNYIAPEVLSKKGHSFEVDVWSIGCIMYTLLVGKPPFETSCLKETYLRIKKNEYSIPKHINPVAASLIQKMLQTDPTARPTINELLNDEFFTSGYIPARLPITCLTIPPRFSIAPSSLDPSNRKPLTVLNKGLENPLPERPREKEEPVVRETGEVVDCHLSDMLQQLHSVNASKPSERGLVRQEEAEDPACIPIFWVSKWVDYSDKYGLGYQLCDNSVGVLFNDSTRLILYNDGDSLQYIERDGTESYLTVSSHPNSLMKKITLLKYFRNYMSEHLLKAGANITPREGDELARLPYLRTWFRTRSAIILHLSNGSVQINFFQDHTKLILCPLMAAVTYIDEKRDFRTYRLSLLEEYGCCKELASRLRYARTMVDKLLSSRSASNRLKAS

[29] = molecular target: Rho-associated protein kinase 1 (Homo sapiens) (UniProt Q13464); assay: Inhibition of ROCK1 (unknown origin) at 1 uM relative to control
[30] = molecular target: SRSF protein kinase 1 (Homo sapiens) (UniProt Q96SB4); assay: Inhibition of SRPK1 (unknown origin) at 1 uM relative to control
[31] = molecular target: BDNF/NT-3 growth factors receptor (Homo sapiens) (UniProt Q16620); assay: Inhibition of TRKB (unknown origin) at 1 uM relative to control
[32] = molecular target: NT-3 growth factor receptor (Homo sapiens) (UniProt Q16288); assay: Inhibition of TRKC (unknown origin) at 1 uM relative to control
NT-3 growth factor receptor (Homo sapiens), sequence (Q16288 32-839 limits assumed): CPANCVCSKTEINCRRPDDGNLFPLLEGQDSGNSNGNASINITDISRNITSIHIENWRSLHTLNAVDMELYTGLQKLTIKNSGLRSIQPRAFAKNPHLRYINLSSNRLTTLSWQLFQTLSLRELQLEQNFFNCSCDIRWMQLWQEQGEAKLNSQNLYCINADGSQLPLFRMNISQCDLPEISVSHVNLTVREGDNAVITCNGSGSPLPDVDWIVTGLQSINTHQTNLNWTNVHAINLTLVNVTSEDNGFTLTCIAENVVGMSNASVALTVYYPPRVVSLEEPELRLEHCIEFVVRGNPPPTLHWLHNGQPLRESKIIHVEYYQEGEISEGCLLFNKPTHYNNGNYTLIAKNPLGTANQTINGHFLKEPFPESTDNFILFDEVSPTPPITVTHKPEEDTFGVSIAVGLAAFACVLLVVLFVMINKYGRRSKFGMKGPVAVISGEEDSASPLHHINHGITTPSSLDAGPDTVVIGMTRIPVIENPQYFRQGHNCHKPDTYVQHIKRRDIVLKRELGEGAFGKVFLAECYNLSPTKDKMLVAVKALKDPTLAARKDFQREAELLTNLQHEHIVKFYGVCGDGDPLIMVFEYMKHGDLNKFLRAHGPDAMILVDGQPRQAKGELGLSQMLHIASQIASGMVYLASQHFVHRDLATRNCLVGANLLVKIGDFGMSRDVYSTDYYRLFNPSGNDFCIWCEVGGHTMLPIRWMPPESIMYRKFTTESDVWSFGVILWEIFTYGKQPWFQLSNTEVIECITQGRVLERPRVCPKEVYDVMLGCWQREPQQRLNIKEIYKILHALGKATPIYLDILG

[33] = molecular target: Tyrosine-protein kinase ZAP-70 (Homo sapiens) (UniProt P43403); assay: Inhibition of ZAP70 (unknown origin) at 1 uM relative to control
[34] = Toxicity in BALB/c nude mouse xenografted with mouse BAF3 cells harboring TMP3 fused TRKA G595R mutant assessed as body weight loss at 30 mg/kg, po administered twice daily for 12 to 14 consecutive days; format: organism-based; settings: in vivo, time 12-14 day
[35] = Toxicity in BALB/c nude mouse xenografted with mouse BAF3 cells harboring TMP3 fused TRKA G595R mutant assessed as mortality at 30 mg/kg, po administered twice daily for 12 to […] consecutive days; format: organism-based; settings: in vivo, time 12-14 day
[36] = Toxicity in BALB/c mouse xenografted with mouse BAF3 cells harboring TMP3 fused wild type TRKA assessed as body weight loss at 15 mg/kg, po administered twice daily for 12 to 14 consecutive days; format: organism-based; settings: in vivo, time 12-14 day
[37] = molecular target: High affinity nerve growth factor receptor (Homo sapiens, UniProt P04629)
[38] = molecular target: High affinity nerve growth factor receptor (Homo sapiens, UniProt P04629, G595R)

## C[C@@H](Nc1ccn2ncc(-c3cnn(CCO)c3)c2n1)c1cc(F)ccc1OCC(F)F
BaF3 [1]
  pIC50: 9.70
BaF3 [2]
  pIC50: 8.80
BaF3 [3]
  pIC50: 7.96
BaF3 [4]
  inhibition in vivo at 5 mg/kg: 64%
BaF3 [5]
  inhibition in vivo at 30 mg/kg: 61%
[6]
  Activity: Non-Toxic
[7]
  CL/F: 158 mL/min/kg
[8]
  AUC(0-inf): 9630 ng·h/mL
[9]
  half-life: 7.2 h
[10]
  half-life: 6.28 h
[11]
  Vz: 4.77 L/kg
[12]
  bioavailability: 92%
[13]
  fraction unbound: 0.121
[14]
  pIC50: < 5.00
[15]
  half-life at 1 µM: 5.25 h
[16]
  inhibition: > 80%
[17]
  inhibition: > 80%
[18]
  inhibition: < 50%
[19]
  inhibition: < 50%
[20]
  inhibition: < 50%
[21]
  inhibition: < 50%
[22]
  inhibition: > 80%
[23]
  inhibition: < 50%
[24]
  inhibition: < 50%
[25]
  inhibition: < 50%
[26]
  inhibition: < 50%
[27]
  inhibition: < 50%
[28]
  inhibition: < 50%
[29]
  inhibition: < 50%
[30]
  inhibition: < 50%
[31]
  inhibition: > 80%
[32]
  inhibition: > 80%
[33]
  inhibition: < 50%
[34]
  Activity: Non-Toxic
[35]
  Activity: Non-Toxic
[36]
  Activity: Non-Toxic
[37]
  pIC50: 9.15
[38]
  pIC50: 9.70
